test: Cytotoxicity Assay (HCT116, CellTiter-Glo); assay type: cell-based; conditions: human, HCT116 cell cytotoxicity IC50
Method: HCT116 cells were seeded in 96 well plates (Greiner Bio-One, Monroe, N.C.) and allowed to settle overnight. Test compound dissolved in dimethyl sulfoxide (DMSO) was added and drug incubation proceeded for 72 hours. When applicable, a 1000× solution of nicotinic acid (NA; Sigma-Aldrich, St. Louis, Mo.) dissolved in water was generated, and 1×NA (10 μM final concentration) was added at the same time as the test compound. After 72 hour, 50 μL of CellTiter-Glo Luminescent Cell Viability Assay reagent (Promega Corporation, Madison, Wis.) was added to cells in 200 μL of cellular media. After a proscribed incubation period, luminescence was measured using a TopCount NXT plate reader (PerkinElmer, Waltham, Mass.).

`O=C(NCc1cccnc1)Nc1ccc(-n2cc(CCN3CCCCC3)c3ccccc32)cc1` [Compound 49, 1-(4-{3-[2-(Piperidin-1-yl)ethyl]-1H-indol-1-yl}phenyl)-3-(pyridin-3-ylmethyl)urea] and `O=C(NCc1cccnc1)Nc1ccc(-n2cc(-c3nccn3CCCN3CCCC3)c3ccccc32)cc1` [Compound 120, 1-(Pyridin-3-ylmethyl)-3-[4-(3-{1-[3-(pyrrolidin-1-yl)propyl]-1H-imidazol-2-yl}-1H-indol-1-yl)phenyl] urea] cannot be ordered by IC50 at 72 h: less than 100 nM for the first, no less than 100 nM for the second.

`O=C(NCc1cccnc1)Nc1ccc(-n2cc(C(=O)N3CCC(O)CC3)c3ccccc32)c(Cl)c1` [Compound 88, 1-(3-Chloro-4-{3-[(4-hydroxy-piperidin-1-yl)carbonyl]-1H-indol-1-yl}phenyl)-3-(pyridin-3-ylmethyl)urea] and `O=C(NCc1cccnc1)Nc1ccc(-n2nc(N3CCC(CN4CCOCC4)CC3)c3ccccc32)cc1` [Compound 62, 1-(4-{3-[4-(Morpholin-4-ylmethyl)piperidin-1-yl]-1H-indazol-1-yl}phenyl)-3-(pyridin-3-ylmethyl)urea] cannot be ordered by IC50 at 72 h: no less than 100 nM for the first, less than 100 nM for the second.

`O=C(NCCCCCCc1c[nH]c2ccccc12)NCc1cccnc1` [Compound 89, 1-[6-(1H-Indol-3-yl)hexyl]-3-(pyridin-3-ylmethyl)urea] and `CC(C)(C)OC(=O)N1CC(N2CC(CCCCCCNC(=O)NCc3cccnc3)c3ccccc32)C1` (stereo not shown) [Compound 121, tert-Butyl 3-[3-(6-{[(pyridin-3-yl-methyl)carbamoyl]amino}hexyl)-2,3-dihydro-1H-indol-1-yl]azetidine-1-carboxylate] cannot be ordered by IC50 at 72 h: no less than 100 nM for the first, less than 100 nM for the second.

`O=C(NCc1ccc(Cl)nc1)Nc1ccc(-n2cc(CCN3CCOCC3)c3ccccc32)cc1` [Compound 128, 1-[(6-Chloro-pyridin-3-yl)methyl]-3-(4-{3-[2-(morpholin-4-yl)ethyl]-1H-indol-1-yl}phenyl)urea] and `O=C(NCc1cccnc1)Nc1ccc(-c2cn(S(=O)(=O)c3cccnc3)c3ccccc23)cc1` [Compound 43, 1-(Pyridin-3-ylmethyl)-3-{4-[1-(pyridin-3-ylsulfonyl)-1H-indol-3-yl]phenyl} urea] cannot be ordered by IC50 at 72 h: less than 100 nM for the first, less than 100 nM for the second.

`O=C(NCc1cccnc1)Nc1ccc(N2CC3(CCN(C4CCOCC4)CC3)c3ccccc32)nc1` [Compound 130] and `O=C(/C=C/c1ccc(-n2nc(C(=O)N3CCC(N4CCCCC4)CC3)c3ccccc32)cc1)NCc1cccnc1` [Compound 177, (2E)-3-{4-[3-(1,4′-Bipiperidin-1′-ylcarbonyl)-1H-indazol-1-yl]phenyl}-N-(pyridin-3-ylmethyl)prop-2-enamide] cannot be ordered by IC50 at 72 h: less than 100 nM for the first, less than 100 nM for the second.

same assay, conditions: human, HCT116 cells, 72 hours drug incubation, CellTiter-Glo luminescence; read-out: HCT116 cell cytotoxicity IC50

`O=C(NCc1cccnc1)Nc1ccc(-n2nc(N3CCNCC3)c3ccccc32)cc1` [Compound 98, 1-{4-[3-(Piperazin-1-yl)-1H-indazol-1-yl]phenyl}-3-(pyridin-3-ylmethyl)urea] and `CN(c1nn(-c2ccc(NC(=O)NCc3cccnc3)cc2)c2ccccc12)C1CCNC1` (stereo not shown) [Compound 76, 1-(4-{3-[Methyl (pyrrolidin-3-yl)amino]-1H-indazol-1-yl}phenyl)-3-(pyridin-3-ylmethyl)urea] cannot be ordered by IC50 at 72 h: less than 100 nM for the first, less than 100 nM for the second.

`O=C(/C=C/c1ccc(-n2cc(CCN3CCCOCC3)c3ccccc32)cc1)NCc1cccnc1` [Compound 181, (2E)-3-(4-{3-[2-(1,4-Oxazepan-4-yl)ethyl]-1H-indol-1-yl}phenyl)-N-(pyridin-3-ylmethyl)prop-2-enamide] and `O=C(/C=C/c1ccc(-n2cc(CCN3CCCC3)c3ccccc32)cc1)NCc1cccnc1` [Compound 174, (2E)-N-(Pyridin-3-ylmethyl)-3-(4-{3-[2-(pyrrolidin-1-yl)ethyl]-1H-indol-1-yl}phenyl)prop-2-enamide] cannot be ordered by IC50 at 72 h: less than 100 nM for the first, less than 100 nM for the second.

`O=C(NCCCn1cc(C(=O)N2CCC(N3CCCCC3)CC2)c2ccccc21)NCc1cccnc1` [Compound 36, 1-{3-[3-(1,4′-Bipiperidin-1′-ylcarbonyl)-1H-indol-1-yl]propyl}-3-(pyridin-3-ylmethyl)urea] and `CN1CCN(C2CCN(C(=O)c3cn(CCCNC(=O)NCc4cccnc4)c4ccccc34)CC2)CC1` [Compound 125, 1-[3-(3-{[4-(4-Methylpiperazin-1-yl)piperidin-1-yl]carbonyl}-1H-indol-1-yl)propyl]-3-(pyridin-3-ylmethyl)urea] cannot be ordered by IC50 at 72 h: no less than 100 nM for the first, less than 100 nM for the second.

`CCN1CCN(C(=O)c2cn(-c3ccc(NC(=O)NCc4cccnc4)cc3Cl)c3ccccc23)CC1` [Compound 95, 1-(3-Chloro-4-{3-[(4-ethylpiperazin-1-yl)carbonyl]-1H-indol-1-yl}phenyl)-3-(pyridin-3-ylmethyl)urea] and `O=C(NCc1cccnc1)Nc1ccc(-n2cc(C(=O)N3CCN(C4CCCCC4)CC3)c3ccccc32)c(Cl)c1` [Compound 92, 1-(3-Chloro-4-{3-[(4-cyclohexyl-piperazin-1-yl)carbonyl]-1H-indol-1-yl}phenyl)-3-(pyridin-3-ylmethyl)urea] cannot be ordered by IC50 at 72 h: less than 100 nM for the first, less than 100 nM for the second.

`CCOC(=O)c1cn(CCCCCNC(=O)NCc2cccnc2)c2ccccc12` [Compound 65, Ethyl 1-(5-{[(pyridin-3-ylmethyl)carbamoyl]amino}pentyl)-1H-indole-3-carboxylate] and `CCOC(=O)c1cn(CCCNC(=O)NCc2cccnc2)c2ccccc12` [Compound 106, Ethyl 1-(3-{[(pyridin-3-ylmethyl)carbamoyl]ami-no}propyl)-1H-indole-3-carboxylate] cannot be ordered by IC50 at 72 h: less than 100 nM for the first, no less than 100 nM for the second.

`CN(C)C1CN(C(=O)c2nn(-c3ccc(/C=C/C(=O)NCc4cccnc4)cc3)c3ccccc23)C1` [Compound 165, (2E)-3-[4-(3-{[3-(Dimethylamino)azetidin-1-yl]carbonyl}-1H-indazol-1-yl)phenyl]-N-(pyridin-3-ylmethyl)prop-2-enamide] and `O=C(/C=C/c1ccc(-n2cc(CCN3CCCCC3)c3ccccc32)cc1)NCc1cccnc1` [Compound 182, (2E)-3-(4-{3-[2-(Piperidin-1-yl)ethyl]-1H-indol-1-yl}phenyl)-N-(pyridin-3-ylmethyl)prop-2-enamide] cannot be ordered by IC50 at 72 h: less than 100 nM for the first, less than 100 nM for the second.

`O=C(NCc1cccnc1)Nc1ccc(-n2cc(-c3nccn3CCC3CCNCC3)c3ccccc32)cc1` [Compound 60, 1-[4-(3-{1-[2-(Piperidin-4-yl)ethyl]-1H-imidazol-2-yl}-1H-indol-1-yl)phenyl]-3-(pyridin-3-ylmethyl)urea] and `O=C(NCc1cccnc1)Nc1ccc(-n2cc(-c3nccn3CCN3CCCC3)c3ccccc32)cc1` [Compound 72, 1-(Pyridin-3-ylmethyl)-3-[4-(3-{1-[2-(pyrrolidin-1-yl)ethyl]-1H-imidazol-2-yl}-1H-indol-1-yl)phenyl] urea] cannot be ordered by IC50 at 72 h: no less than 100 nM for the first, less than 100 nM for the second.

`O=C(NCc1cccnc1)Nc1ccc(-n2cc(CCN3CC[C@@H](F)C3)c3ccccc32)cc1` [Compound 38, 1-[4-(3-{2-[(3R)-3-Fluoropyrrolidin-1-yl]ethyl}-1H-indol-1-yl)phenyl]-3-(pyridin-3-ylmethyl)urea] and `CN1CCN(C(=O)Cc2cn(-c3ccc(NC(=O)NCc4cccnc4)cc3)c3ccccc23)CC1` [Compound 101, 1-(4-{3-[2-(4-Methylpiperazin-1-yl)-2-oxoethyl]-1H-indol-1-yl}phenyl)-3-(pyridin-3-ylmethyl)urea] cannot be ordered by IC50 at 72 h: less than 100 nM for the first, less than 100 nM for the second.

`O=C(NCc1cccnc1)N[C@H]1CC[C@@H](n2cc(C(=O)N3CCN(C4CCCCC4)CC3)c3ccccc32)CC1` [Compound 34, 1-(cis-4-{3-[(4-Cyclohexyl-piperazin-1-yl)carbonyl]-1H-indol-1-yl}cyclohexyl)-3-(pyridin-3-ylmethyl)urea] and `O=C(NCc1cccnc1)N[C@H]1CC[C@H](n2cc(C(=O)N3CCN(C4CCCCC4)CC3)c3ccccc32)CC1` [Compound 37, 1-(trans-4-{3-[(4-Cyclohexyl-piperazin-1-yl)carbonyl]-1H-indol-1-yl}cyclohexyl)-3-(pyridin-3-ylmethyl)urea] cannot be ordered by IC50 at 72 h: no less than 100 nM for the first, less than 100 nM for the second.

`CN1CCN(C2CCN(C(=O)c3cn(CCCCNC(=O)NCc4cccnc4)c4ccccc34)CC2)CC1` [Compound 115, 1-[4-(3-{[4-(4-Methylpiperazin-1-yl)piperidin-1-yl]carbonyl}-1H-indol-1-yl)butyl]-3-(pyridin-3-ylmethyl)urea] and `CC(C)(CCCCNC(=O)NCc1cccnc1)n1cc(C(=O)N2CCN(C3CCCCC3)CC2)c2ccccc21` [Compound 67, 1-(5-{3-[(4-Cyclohexyl-piperazin-1-yl)carbonyl]-1H-indol-1-yl}-5-methylhexyl)-3-(pyridin-3-ylmethyl)urea] cannot be ordered by IC50 at 72 h: less than 100 nM for the first, less than 100 nM for the second.

`O=C(Cc1ccc(-n2nc(C(=O)N3CCC(N4CCCCC4)CC3)c3ccccc32)cc1)NCc1cccnc1` [Compound 183, 2-{4-[3-(1,4′-Bipiperidin-1′-ylcarbonyl)-1H-indazol-1-yl]phenyl}-N-(pyridin-3-ylmethyl)acetamide] and `Cc1c(Cc2ccccc2)c(C(=O)N2CCC(N3CCCCC3)CC2)nn1-c1ccc(NC(=O)NCc2cccnc2)cc1` [Compound 46, 1-{4-[4-Benzyl-3-(1,4′-bipiperidin-1′-ylcarbonyl)-5-methyl-1H-pyrazol-1-yl]phenyl}-3-(pyridin-3-ylmethyl)urea] cannot be ordered by IC50 at 72 h: less than 100 nM for the first, less than 100 nM for the second.

`O=C(NCCCn1cc(C(=O)NCCCN2CCCC2)c2ccccc21)NCc1cccnc1` [Compound 59, 1-(3-{[(Pyridin-3-ylmethyl)carbamoyl]amino}propyl)-N-[3-(pyrrolidin-1-yl)propyl]-1H-indole-3-carboxamide] and `O=C(NCc1cccnc1)Nc1ccc2c(c1)c(C(=O)NCCCN1CCOCC1)cn2Cc1ccccc1` [Compound 51, 1-Benzyl-N-[3-(morpholin-4-yl)propyl]-5-{[(pyridin-3-ylmethyl)carbamoyl]ami-no}-1H-indole-3-carboxamide] cannot be ordered by IC50 at 72 h: no less than 100 nM for the first, no less than 100 nM for the second.
